Measurements: publication PMC11748363, “Antimicrobial and Antiproliferative Properties of 2‐Phenyl‐N‐(Pyridin‐2‐yl)acetamides” (Chemical Biology & Drug Design, 2025)
Values after ≈ are worked out from the molar mass of the structure shown. Where two headings read alike, the source gives them in different places.

How the values were obtained:
[1] = tested on: Mycobacterium tuberculosis H37Ra; assay: Antimycobacterial microdilution broth MIC (resazurin), Mtb H37Ra; type: cell-based; conditions: for MIC: Mycobacterium tuberculosis, H37RA, read-out: MIC Mtb H37Ra; for SI (selectivity index): SI = HepG2 IC50 (μM)/MIC MtbH37Ra (μM), calculated for compounds with MIC ≤ 31.25 μg/mL
[2] = tested on: Mycolicibacterium smegmatis DSM 43465; assay: Antimycobacterial microdilution broth MIC (resazurin), M. smegmatis; type: cell-based; conditions: DSM43465, read-out: MIC M. smegmatis
[3] = tested on: Mycolicibacterium aurum DSM 43999; assay: Antimycobacterial microdilution broth MIC (resazurin), M. aurum; type: cell-based; conditions: DSM43999, read-out: MIC M. aurum
HepG2 cell line = assay: Cytotoxicity CellTiter 96, HepG2; type: cell-based, human; conditions: Homo sapiens, HepG2, 24 h, 24 h incubation; ^c compound precipitated in the testing medium; ^d over the limit of tested concentrations
[4] = tested on: Staphylococcus aureus CCM 4223, ATCC 29213; assay: Antibacterial microdilution broth MIC, SA; type: cell-based
[5] = tested on: Staphylococcus aureus subsp. aureus CCM 4750, ATCC 43300 (MRSA); assay: Antibacterial microdilution broth MIC, MRSA; type: cell-based
[6] = tested on: Staphylococcus epidermidis CCM 4418, ATCC 12228; assay: Antibacterial microdilution broth MIC, SE; type: cell-based
[7] = tested on: Enterococcus faecalis CCM 4224, ATCC 29212; assay: Antibacterial microdilution broth MIC, EF; type: cell-based
[8] = tested on: Escherichia coli CCM 3954, ATCC 25922; assay: Antibacterial microdilution broth MIC, EC; type: cell-based
[9] = tested on: Acinetobacter baumannii DSM 30007, ATCC 19606; assay: Antibacterial microdilution broth MIC, ACI; type: cell-based
[10] = tested on: Pseudomonas aeruginosa CCM 3955, ATCC 27853; assay: Antibacterial microdilution broth MIC, PA; type: cell-based
[11] = tested on: Candida albicans CCM 8320, ATCC 24433; assay: Antifungal microdilution broth MIC, CA
[12] = tested on: Candida krusei CCM 8271, ATCC 6258; assay: Antifungal microdilution broth MIC, CK; conditions: Pichia kudriavzevii
[13] = tested on: Candida parapsilosis CCM 8260, ATCC 22019; assay: Antifungal microdilution broth MIC, CP; conditions: Lodderomyces parapsilosis
[14] = tested on: Candida tropicalis CCM 8264, ATCC 750; assay: Antifungal microdilution broth MIC, CT
[15] = tested on: Aspergillus fumigatus ATCC 204305; assay: Antifungal microdilution broth MIC, AF
[16] = tested on: Lichtheimia corymbifera CCM 8077; assay: Antifungal microdilution broth MIC, LC
[17] = tested on: Trichophyton interdigitale CCM 8377, ATCC 9533; assay: Antifungal microdilution broth MIC, TI; conditions: Trichophyton interdigitale
[18] = tested on: Aspergillus flavus CCM 8363; assay: Antifungal microdilution broth MIC, AFla
[19] = tested on: Klebsiella pneumoniae CCM 4415, ATCC 10031; assay: Antibacterial microdilution broth MIC, KP
[20] = Staphylococcus aureus, 24 h; read-out: MIC SA 24h
[21] = Staphylococcus aureus, 48 h; read-out: MIC SA 48h
[22] = Staphylococcus aureus, 24 h; read-out: MIC MRSA 24h
[23] = Staphylococcus aureus, 48 h; read-out: MIC MRSA 48h
[24] = ATCC204305, 24 h, read-out: MIC AF 24h
[25] = ATCC204305, 48 h, read-out: MIC AF 48h
[26] = CCM8077, 24 h, read-out: MIC LC 24h
[27] = CCM8077, 48 h, read-out: MIC LC 48h
[28] = CCM8363, 24 h, read-out: MIC AFla 24h
[29] = CCM8363, 48 h, read-out: MIC AFla 48h

Compound	MIC ([1]; Calculated from MIC (μg/mL)) [µM]	MIC [1] [µg/mL]	MIC [2] [µg/mL]	MIC [3] [µg/mL]	IC50 (HepG2 cell line) [µM]	MIC ([6]; 24 h, read-out: MIC SE 24h) [µM]	MIC ([6]; 48 h, read-out: MIC SE 48h) [µM]	MIC ([7]; 24 h, read-out: MIC EF 24h) [µM]	MIC ([7]; 48 h, read-out: MIC EF 48h) [µM]	MIC ([8]; 24 h, read-out: MIC EC 24h) [µM]	MIC ([8]; 48 h, read-out: MIC EC 48h) [µM]	MIC ([9]; 24 h, read-out: MIC ACI 24h) [µM]	MIC ([9]; 48 h, read-out: MIC ACI 48h) [µM]	MIC ([10]; 24 h, read-out: MIC PA 24h) [µM]	MIC ([10]; 48 h, read-out: MIC PA 48h) [µM]	MIC ([11]; 24 h, read-out: MIC CA 24h) [µM]	MIC ([11]; 48 h, read-out: MIC CA 48h) [µM]	MIC ([12]; 24 h, read-out: MIC CK 24h) [µM]	MIC ([12]; 48 h, read-out: MIC CK 48h) [µM]	MIC ([13]; 24 h, read-out: MIC CP 24h) [µM]	also measured
O=C(Cc1ccccc1)Nc1ccc(Cl)cn1 [Compound 2]	63.3	15.6	500 (≈ 2030 µM)	500 (≈ 2030 µM)	> 100	> 500	> 500	> 500	> 500	> 500	> 500	> 500	> 500	> 500	> 500	> 500	> 500	> 500	> 500	> 500	SI (selectivity index) [1]: > 1.6; MIC [4, 20]: > 500 µM; MIC [4, 21]: > 500 µM; MIC [5, 22]: > 500 µM; MIC [5, 23]: > 500 µM; MIC ([13]; 48 h, read-out: MIC CP 48h): > 500 µM; MIC ([14]; 24 h, read-out: MIC CT 24h): > 500 µM; MIC ([14]; 48 h, read-out: MIC CT 48h): > 500 µM; MIC [15, 24]: > 500 µM; MIC [15, 25]: > 500 µM; MIC [16, 26]: > 500 µM; MIC [16, 27]: > 500 µM; MIC ([17]; 72 h, read-out: MIC TI 72h): > 500 µM; MIC ([17]; 120 h, read-out: MIC TI 120h): > 500 µM; MIC [18, 28]: > 500 µM; MIC [18, 29]: > 500 µM; MIC KP 24h [19]: > 500 µM; MIC KP 48h [19]: > 500 µM
O=C(Cc1ccccc1)Nc1cccc(Cl)n1 [Compound 3]	127	31.2	15.6 (≈ 63.3 µM)	62.5 (≈ 253 µM)	433	> 500	> 500	> 500	> 500	> 500	> 500	> 500	> 500	> 500	> 500	> 500	> 500	250 (≈ 61.7 µg/mL)	500 (≈ 123 µg/mL)	500 (≈ 123 µg/mL)	SI (selectivity index) [1]: 3.42; MIC [4, 20]: 500 µM (≈ 123 µg/mL); MIC [4, 21]: 500 µM (≈ 123 µg/mL); MIC [5, 22]: > 500 µM; MIC [5, 23]: > 500 µM; MIC ([13]; 48 h, read-out: MIC CP 48h): > 500 µM; MIC ([14]; 24 h, read-out: MIC CT 24h): > 500 µM; MIC ([14]; 48 h, read-out: MIC CT 48h): > 500 µM; MIC [15, 24]: > 500 µM; MIC [15, 25]: > 500 µM; MIC [16, 26]: > 500 µM; MIC [16, 27]: > 500 µM; MIC ([17]; 72 h, read-out: MIC TI 72h): 125 µM (≈ 30.8 µg/mL); MIC ([17]; 120 h, read-out: MIC TI 120h): 250 µM (≈ 61.7 µg/mL); MIC [18, 28]: > 500 µM; MIC [18, 29]: > 500 µM; MIC KP 24h [19]: > 500 µM; MIC KP 48h [19]: > 500 µM
COc1ccccc1CC(=O)Nc1ccccn1 [Compound 4]	516	125	> 500	250 (≈ 1030 µM)	> 1000	> 500	> 500	> 500	> 500	> 500	> 500	> 500	> 500	> 500	> 500	> 500	> 500	> 500	> 500	> 500	MIC [4, 20]: > 500 µM; MIC [4, 21]: > 500 µM; MIC [5, 22]: > 500 µM; MIC [5, 23]: > 500 µM; MIC ([13]; 48 h, read-out: MIC CP 48h): > 500 µM; MIC ([14]; 24 h, read-out: MIC CT 24h): > 500 µM; MIC ([14]; 48 h, read-out: MIC CT 48h): > 500 µM; MIC [15, 24]: > 500 µM; MIC [15, 25]: > 500 µM; MIC [16, 26]: > 500 µM; MIC [16, 27]: > 500 µM; MIC ([17]; 72 h, read-out: MIC TI 72h): > 500 µM; MIC ([17]; 120 h, read-out: MIC TI 120h): > 500 µM; MIC [18, 28]: > 500 µM; MIC [18, 29]: > 500 µM; MIC KP 24h [19]: > 500 µM; MIC KP 48h [19]: > 500 µM
COc1ccccc1CC(=O)Nc1ccc(Cl)cn1 [Compound 5]	> 1800	> 500	> 500	> 500	> 250	> 500	> 500	> 500	> 500	> 500	> 500	> 500	> 500	> 500	> 500	> 500	> 500	> 500	> 500	> 500	MIC [4, 20]: > 500 µM; MIC [4, 21]: > 500 µM; MIC [5, 22]: > 500 µM; MIC [5, 23]: > 500 µM; MIC ([13]; 48 h, read-out: MIC CP 48h): > 500 µM; MIC ([14]; 24 h, read-out: MIC CT 24h): > 500 µM; MIC ([14]; 48 h, read-out: MIC CT 48h): > 500 µM; MIC [15, 24]: > 500 µM; MIC [15, 25]: > 500 µM; MIC [16, 26]: > 500 µM; MIC [16, 27]: > 500 µM; MIC ([17]; 72 h, read-out: MIC TI 72h): 500 µM (≈ 138 µg/mL); MIC ([17]; 120 h, read-out: MIC TI 120h): 500 µM (≈ 138 µg/mL); MIC [18, 28]: > 500 µM; MIC [18, 29]: > 500 µM; MIC KP 24h [19]: > 500 µM; MIC KP 48h [19]: > 500 µM
COc1ccccc1CC(=O)Nc1cccc(Cl)n1 [Compound 6]	> 1800	> 500	> 500	> 500	> 500	> 500	> 500	> 500	> 500	> 500	> 500	> 500	> 500	> 500	> 500	> 500	> 500	> 500	> 500	> 500	MIC [4, 20]: > 500 µM; MIC [4, 21]: > 500 µM; MIC [5, 22]: > 500 µM; MIC [5, 23]: > 500 µM; MIC ([13]; 48 h, read-out: MIC CP 48h): > 500 µM; MIC ([14]; 24 h, read-out: MIC CT 24h): > 500 µM; MIC ([14]; 48 h, read-out: MIC CT 48h): > 500 µM; MIC [15, 24]: > 500 µM; MIC [15, 25]: > 500 µM; MIC [16, 26]: > 500 µM; MIC [16, 27]: > 500 µM; MIC ([17]; 72 h, read-out: MIC TI 72h): > 500 µM; MIC ([17]; 120 h, read-out: MIC TI 120h): > 500 µM; MIC [18, 28]: > 500 µM; MIC [18, 29]: > 500 µM; MIC KP 24h [19]: > 500 µM; MIC KP 48h [19]: > 500 µM
COc1cccc(CC(=O)Nc2ccccn2)c1 [Compound 7, 2-(3-methoxyphenyl)-N-(pyridin-2-yl)acetamide]	516	125	250 (≈ 1030 µM)	250 (≈ 1030 µM)	> 500	> 125	> 125	> 125	> 125	> 125	> 125	> 125	> 125	> 125	> 125	> 125	> 125	> 125	> 125	> 125	MIC ([4]; Staphylococcus aureus, 24 h, read-out: MIC SA 24h): 125 µM (≈ 30.3 µg/mL); MIC ([4]; Staphylococcus aureus, 48 h, read-out: MIC SA 48h): 125 µM (≈ 30.3 µg/mL); MIC ([5]; Staphylococcus aureus, 24 h, read-out: MIC MRSA 24h): > 125 µM; MIC ([5]; Staphylococcus aureus, 48 h, read-out: MIC MRSA 48h): > 125 µM; MIC ([13]; 48 h, read-out: MIC CP 48h): > 125 µM; MIC ([14]; 24 h, read-out: MIC CT 24h): > 125 µM; MIC ([14]; 48 h, read-out: MIC CT 48h): > 125 µM; MIC [15, 24]: > 125 µM; MIC [15, 25]: > 125 µM; MIC [16, 26]: > 125 µM; MIC [16, 27]: > 125 µM; MIC ([17]; 72 h, read-out: MIC TI 72h): > 125 µM; MIC ([17]; 120 h, read-out: MIC TI 120h): > 125 µM; MIC [18, 28]: > 125 µM; MIC [18, 29]: > 125 µM; MIC KP 24h [19]: > 125 µM; MIC KP 48h [19]: > 125 µM
